The text below walks through data of article PMC5856640 (ACS chemical biology, 2018).

The assay addresses Mpa (mycobacterial proteasome ATPase) (Mycobacterium tuberculosis, UniProt P9WQN5). The assay can be described thus: […]. The format is binding.

Structures are written as SMILES.

Mpa (mycobacterial proteasome ATPase), sequence (P9WQN5 whole entry): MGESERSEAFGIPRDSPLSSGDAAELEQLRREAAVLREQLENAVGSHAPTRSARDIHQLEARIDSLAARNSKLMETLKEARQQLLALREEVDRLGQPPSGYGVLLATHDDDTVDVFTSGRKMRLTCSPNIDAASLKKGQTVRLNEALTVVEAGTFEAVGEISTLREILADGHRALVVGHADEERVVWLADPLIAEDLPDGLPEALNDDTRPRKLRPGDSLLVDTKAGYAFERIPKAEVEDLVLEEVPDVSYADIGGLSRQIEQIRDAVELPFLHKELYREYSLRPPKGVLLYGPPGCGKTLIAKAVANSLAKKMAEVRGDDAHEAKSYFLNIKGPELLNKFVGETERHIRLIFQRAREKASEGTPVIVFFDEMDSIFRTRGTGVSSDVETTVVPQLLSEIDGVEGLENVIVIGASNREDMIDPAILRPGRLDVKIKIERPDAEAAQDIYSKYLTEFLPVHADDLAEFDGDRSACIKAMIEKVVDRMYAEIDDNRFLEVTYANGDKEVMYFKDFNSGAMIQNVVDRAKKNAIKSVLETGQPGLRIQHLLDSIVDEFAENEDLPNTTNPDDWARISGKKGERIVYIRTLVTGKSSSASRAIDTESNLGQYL

In general, Kd refers to the free concentration of one partner at which half of the binding sites on the other are occupied at equilibrium, for simple one-to-one binding. In turn, `Cn1cnc2ncnn2c1=S` [MTBB, NSC 145180] had a Kd of 400 ± 100 nM.

Turning to `c1ccc(N=NN2CCOCC2)cc1` [MTBA, NSC 136065], the Kd worked out at 1 ± 0.1 nM.
